The numbers were not newly measured in patent US20030139466A1, “Methods for pretreating a subject with extracorporeal photopheresis” (priority 2001, published 2003), which cites them from elsewhere.

Series [1] has as its system monocytes. Particulars: plasma containing 8-methoxypsoralen and exposure to ultraviolet-A light (photopheresis).
The subject of series [2] is heart transplantation patients.

Structures are written as SMILES. A value given as a limit tells only on which side of the number the result lay.

On to `COc1c2occc2cc2ccc(=O)oc12` [8-methoxypsoralen, 9-methoxy-7H-furo[3,2-g][1]-benzopyran-7-one], for which, in series [1], the cytokine release result is “releases tumor necrosis factor-alpha, IL-1, IL-6, and possibly IL-8”. For the compound `Cn1cnc([N+](=O)[O-])c1Sc1ncnc2nc[nH]c12` [azathioprine], the One-year actuarial survival in series [2] is reported as 60%. Moreover, the “patients who experience no rejection” value in series [2] (initial postoperative period) is listed as < 10%.
